Data published in patent publication US8492385B2, “Crystalline modifications of N-alpha-(2,4,6-triisopropylphenylsulfonyl)-3-hydroxyamidino- (L)- phenylalanine 4-ethoxycarbonylpiperazide and/or salts thereof” (Wilex AG, priority 2004, dated 2013).

Assays:
Format in all cases: physicochemical
[1] = Investigation of the crystallinity by X-ray diffractometry; settings: salts suspended 7 days in a suitable solvent, filtered, dried at room temperature
Description: In a second step, the salts were suspended for 7 days in a suitable solvent, filtered and dried at room temperature.
Processes: X-ray diffractometry (XRD); microscopy

[2] = Investigation of the hygroscopicity (storage at 85% relative humidity, TGA); settings: storage for 1 week/85% relative humidity
[3] = DSC and TGA thermograms of WX-671.1 (hydrogensulfate salt)
Procedure: In this example, thermograms were plotted by differential scanning calorimetry (DSC) and thermo-gravimetry (TGA). […] It decomposes from about 180° C. (exothermic peak in the DSC thermogram, mass loss in the TGA thermogram in the corresponding temperature range). The decomposition temperatures are strongly heating rate-dependent and were determined in the DSC calorimeter at a heating rate of 2 Kmin^−1. The DSC table measurements shown were recorded at a heating rate of […] is correspondingly recorded at higher temperatures.

[4] = Thermomicroscopy of WX-671.1
Procedure: Thermomicroscopic recordings of a sample of WX-671.1 were made (not shown). Agglomerates were observed which show no specific habit. The active compound decomposes with bubble formation from about 197° C. Differences to the decomposition temperature observed in the DSC calorimeter come about due to the different heating rates. WX-671.1 is obtained in nonspecific form from solvents.

[5] = Polymorphism screening / stability of the solid form (stirring in solvents, mechanical stress)

| XRD (crystallinity) [1] | TGA (hygroscopicity) [2] | TGA, kind of water uptake [2] | decomposition temperature ([3]; mesophase B) | mass loss (TGA) ([3]; mesophase C, up to 175° C.) | mass loss (TGA) ([3]; modification A, at 150° C.) | decomposition with bubble formation, temperature [4] | change of form on stirring in water:ethanol (1:1) ([5]; mesophase B) | change of form due to mechanical stress ([5]; mesophase B, grinding in a mortar, compressing at 9 kbar) | change of form on stirring in isopropanol ([5]; mesophase B, room temperature, one week) | thermodynamic stability of the form [5] | Compound |
| --- | --- | --- | --- | --- | --- | --- | --- | --- | --- | --- | --- |
| liquid crystalline | 0.8% | (adsorptive) | about 185 °C | 4.5% | no significant mass loss | about 197 °C | does not change | does not alter | changes into modification A | – | CCOC(=O)N1CCN(C(=O)[C@H](Cc2cccc(C(N)=NO)c2)NS(=O)(=O)c2c(C(C)C)cc(C(C)C)cc2C(C)C)CC1 [WX-671.1, N-α-(2,4,6-triisopropylphenylsulfonyl)-3-hydroxyamidino-(L)-phenylalanine 4-ethoxycarbonylpiperazide] |
| completely amorphous | 10.5% | (adsorptive) | – | – | – | – | – | – | – | – | Tartrate |
| – | – | – | – | – | – | – | – | – | – | thermodynamically stable compound | CCOC(=O)N1CCN(C(=O)[C@H](Cc2cccc(C(N)=NO)c2)NS(=O)(=O)c2c(C(C)C)cc(C(C)C)cc2C(C)C)CC1.O=S(=O)(O)O [WX-671.2, N-α-(2,4,6-triisopropylphenyl-sulfonyl)-3-hydroxyamidino-(L)-phenylalanine 4-ethoxy-carbonylpiperazide sulfate] |

| Compound | XRD (crystallinity) [1] | TGA (hygroscopicity) [2] | TGA, kind of water uptake [2] | decomposition temperature ([3]; mesophase B) | mass loss (TGA) ([3]; mesophase C, up to 175° C.) | mass loss (TGA) ([3]; modification A, at 150° C.) | decomposition with bubble formation, temperature [4] | change of form on stirring in water:ethanol (1:1) ([5]; mesophase B) | change of form due to mechanical stress ([5]; mesophase B, grinding in a mortar, compressing at 9 kbar) | change of form on stirring in isopropanol ([5]; mesophase B, room temperature, one week) | thermodynamic stability of the form [5] |
| --- | --- | --- | --- | --- | --- | --- | --- | --- | --- | --- | --- |
| Hydrochloride | completely amorphous | 7.5% | (adsorptive) | – | – | – | – | – | – | – | – |
